{"source": "patent US20230039099A1", "about": "“AKT INHIBITORS FOR ENHANCING CHIMERIC T CELL PERSISTENCE” (H. Lee Moffitt Cancer Center and Research Institute, Inc., priority 2019, published 2023)", "key": {"[1]": {"test_system": "h19BBz CAR T cells", "test": "Cytokine secretion of h19BBz CAR T cells stimulated with target cells for 24 hrs (Ella)", "assay_type": "cell-based, human", "settings": "healthy donor T cells; TCN added on day 2; target cell stimulation 24 hrs; supernatant run on Ella", "method": "(§1) T cells were isolated from healthy donor PBMCs using negative selection. TCN was added on day 2 before the first spin transduction. To measure real time cell killing CAR T cells were stimulated with 3T3-hCD19 target cells using an xCelligence RTCA machine. To measure cytokine secretion CAR T cells were stimulated with target cells for 24 hrs. Supernatant was then collected and run using Ella to measure cytokines. […] T cells were isolated from healthy donor PBMCs using negative selection. TCN was added on day 2 before the first spin transduction. To measure real time cell killing CAR T cells were stimulated with 3T3-hCD19 target cells using an xCelligence RTCA machine. To measure cytokine secretion CAR T cells were stimulated with target cells for 24 hrs. Supernatant was then collected and run using Ella to measure cytokines."}, "[2]": {"test_system": "T cells", "test": "Toxicity of TCN for T cells", "assay_type": "cell-based", "settings": "human healthy donor T cells, in vitro", "method": "Previous studies have shown drugs given during CART cell production can influence their function. To determine the effect of TCN human healthy donor T cells are treated with TCN prior to CAR transduction. 10 μM of TCN is used because it is the highest non-toxic dose for T cells. After transduction and proliferation in culture in vitro assays are preformed to determine CAR T cell function. These include cytotoxicity, cytokine secretion, RNA-seq, polyfunctional strength index, and CAR T cell phenotype. We next evaluate the function of CAR T cells given TCN during production in vivo. A total of 60 NSG mice are given the human B cell tumor cell line NALM6 containing luciferase on day −7. On day 0, 10 mice per group will be given untransduced, h1928z, or h19BBz CAR T cells produced with or without TCN. Bioluminescence imaging is used to determine tumor burden and measure overall survival."}, "[3]": {"test_system": "CAR T cells", "test": "CAR T cell memory phenotype by flow cytometry (LSRII), TCN added during CAR T cell production", "assay_type": "cell-based, human", "settings": "healthy donor PBMC T cells; TCN added on day 2 before first spin transduction; flow cytometry on day 7", "method": "FIGS. 1A to 1G show TCN increases central memory CAR T cell population. T cells were isolated from healthy donor PBMCs using negative selection. TCN was added on day 2 before the first spin transduction. On day 7 cells were stained for flow cytometry and run on an LSRII.\nT cells were isolated from healthy donor PBMCs using negative selection. TCN was added on day 2 before the first spin transduction. On day 7 cells were stained for flow cytometry and run on an LSRII.\nFor the anti-human CD19 constructs the SFG backbone was modified to include the FMC63 ScFv with a CD8a trans-membrane and hinge domain followed by either CD28 or 4-1BB, and CD3. All SFG constructs were calcium phosphate transfected into H29 cells. Retroviral supernatants of transfected H29 were harvested and used to transduce Phoenix E or RD114 cells. Retroviral supernatant of producer cells was harvested, 0.45 μm filtered, and used to transduce T cells as described. Viability was measured by trypan blue staining and enumerated on an automated cell counter (Bio-Rad). Transduction efficiency was estimated by flow cytometry as a percentage of protein L+ live cells. For downstream experiments CAR T cell doses were normalized based on CAR gene transfer but not sorted to exclude CAR-negative T cells. As a result, total T cell dose was varied."}, "[4]": {"test_system": "h19BBz CAR T cells", "test": "Real time cell killing of 3T3-hCD19 target cells by h19BBz CAR T cells (xCelligence RTCA)", "assay_type": "cell-based, human", "settings": "healthy donor T cells, TCN added on day 2", "method": "as §1"}, "[5]": {"test_system": "p-Akt", "test": "p-Akt western blot in m1928z CAR T cells stimulated with 3T3-mCD19 targets", "assay_type": "cell-based, mouse (C57BL6)", "settings": "C57BL6 splenocyte T cells, TCN added on day 2, day 5 stimulation with 3T3-mCD19 targets for 24 hrs", "method": "T cells were isolated from C57BL6 splenocyes using negative selection. TCN was added on day 2 before the first spin transduction. On day 5 CAR T cells were stimulated with 3T3-mCD19 targets for 24 hrs. After stimulation cells were lysed and run by western blot. […] T cells were isolated from C57BL6 splenocyes using negative selection. TCN was added on day 2 before the first spin transduction. On day 5 CAR T cells were stimulated with 3T3-mCD19 targets for 24 hrs. After stimulation cells were lysed and run by western blot."}}, "data": [{"smiles": "CN1N=C(N)c2cn([C@@H]3O[C@H](COP(=O)(O)O)[C@@H](O)[C@H]3O)c3ncnc1c23", "note": "[TCN, Triciribine]", "values": [{"measurement": "h19BBz CAR cytokine secretion", "setting": "[1]", "value": "reduces"}, {"measurement": "highest non-toxic dose for T cells", "setting": "[2]", "value": 10, "unit": "µM"}, {"measurement": "central memory CAR T cell population", "setting": "[3]", "value": "increases"}, {"measurement": "effector memory CAR T cell population", "setting": "[3]", "value": "increases"}, {"measurement": "h19BBz CAR killing", "setting": "[4]", "value": "reduces"}, {"measurement": "p-Akt in m1928z CAR T cells", "setting": "[5]", "value": "inhibits"}]}]}
